Data taken from ChEMBL document CHEMBL1156408, “Parasitenone, a new epoxycyclohexenone related to gabosine from the marine-derived fungus Aspergillus parasiticus” (J Nat Prod, 2002).
pIC50: −log10 of the molar value.

Columns and labels:
Type in all cases: functional
[1] = system: Radical scavenging activity; experiment: Antioxidant activity assessed as DPPH free radical scavenging activity
[2] = Antioxidant activity assessed as peroxy nitrite free radical scavenging activity
[3] = Antioxidant activity assessed as superoxide radical scavenging activity
[4] = Antioxidant activity assessed as nitric oxide radical scavenging activity

Row | pIC50 [1] | pIC50 [2] | pIC50 [3] | pIC50 [4] | Structure (SMILES)
1 | 6.22 | 5.51 | 4.96 | 6.30 | OCc1cc(O)c(O)c(Cl)c1
2 | 5.85 | 5.66 | < 4.30 | 6.40 | OCc1cc(O)ccc1O [GENTISYL ALCOHOL]
3 | 4.24 | 4.28 |  |  | O=C1C=C(CO)[C@H](O)[C@@H]2O[C@H]12 [PARASITENONE]

Row | Structure (SMILES) | pIC50 [1] | pIC50 [2] | pIC50 [3] | pIC50 [4]
4 | CC1(C)N([O])C(c2ccc(C(=O)O)cc2)=[N+]([O-])C1(C)C |  |  |  | 3.86
